Experimental data from US4831043A, “Dopaminergic benzimidazol-2-ones” (Roussel Uclaf, priority 1987, dated 1989).
pIC50: −log10 of the molar value. Where a name gives a salt, the structure may show the parent alone. Read-outs that look alike come from different tables or passages of the source.

Experiments:
[1] = molecular target: T1, dopaminergic receptors (Rattus norvegicus, UniProt P61169); assay: Affinity for the dopaminergic receptors (displacement of 3H spiroperidol, striated bodies); assay type: binding, rats
T1 construct: The striated bodies removed from the brains of 6 male rats; from tissue; host or cells: rat striatum (striated bodies), membrane preparation
Procedure: (4) Affinity for the dopaminergic receptors
The striated bodies removed from the brains of 6 male rats weighing an average of 150 g were homogenized to the twentieth (weight/volume) in 0.32M sucrose. After centrifuging the homogenized mixture at 1,000 g for 10 minutes at 0° C. the supernatant was centrifuged at 30,000 g for 15 minutes at +4° C. The residue was taken up in 25 ml of Tris HCl 50 mM buffer, pH 7.7, and centrifuged at 30,000 g for 15 minutes at +4° C. The new residue was taken up in 50 ml of Krebs Tris HCl buffer pH 7.3, and the suspension was pre-incubated fo 10 minutes at 37° C. It was then incubated for 20 minutes on a water-bath at +37° C. in the presence of 3H spinoperidol alone, with an excess of haloperidol and with increasing concentrations of the product under test. The incubated suspensions were filtered on Whatman GF/C and the filters were washed three times with 5 ml of Tris HCl 50 mM buffer. The radio-activity of the filters was measured by liquid scintillation.
The non-specific fixation were determined in parallel by incubation of 3H spiroperidol in the presence of an excess of haloperidol and the following results were obtained. The result was expressed directly in 50% inhibiting concentrations, (IC50 : concentration of product studied, expressed in nM, necessary to displace 50% of the specific radio-activity fixed on the receptor studied).

[2] = test system: mice; assay: Study of the acute toxicity (LDO, oral route); assay type: in vivo
Procedure: (3) Study of the acute toxicity
The lethal doses LDO of the different compounds tested were evaluated after administration by oral route in mice. The maximum dose not causing any mortality in 8 days was called LDO and the following results were obtained: […]

[3] = test system: average arterial pressure; assay: Test of revealing a direct vasodilatation activity (demedulated rats under angiotensine II perfusion); assay type: in vivo, Rats of Sprague-Dawley strain; details: Rattus norvegicus, intravenous cumulative doses, tested between 0.001 and 1 mg/kg, read-out: dose from which vasodilatation effect starts
Procedure: Rats of Sprague-Dawley strain with a weight of 320-350 g were anesthetized with pentobarbital (50 mg/kg by interperitoneal injection). After insertion of a carotid catheter to measure the arterial pressure and a jugular catheter for the injection of the compounds to be stidied as well as the eventual antagonists, the animals were demedulated by a steel rod which was introduced by the right orbital hole and passed down the whole length of the spinal marrow. The animals were then placed immediately under assisted respiration and some minutes after stabilization of arterial pressure, the animals received an intravenous perfusion of angiotensine II of 0.50 micrograms/kg per minute to increase their average pressure by about 100 mm of mercury. After obtaining a plateau, the test compound was injected intravenously every 2 minutes and in cumulative doses. The percentages of fall of the average arterial pressure so obtained enabled a curve of dose-response to be drawn reflecting the vasodilatation activity of the molecule studied. Previous treatment of the animals by different antagonists enabled the mechanism of action of this molecule to be distinguished. The products were tested between 0.001 and 1 mg/kg and domperidone and propanolol were used as antagonists.

[4] = test system: arterial pressure; assay: Study of the hypotensive activity on anesthetized "normotendu" rat; assay type: in vivo, Male Sprague-Dawley rats (CR); details: jugular vein injection
Procedure: (5) Study of the hypotensive activity on anesthetized "normotendu" rat.
Male Sprague-Dawley rats (CR) were anesthetized intraperitoneally with sodium pentobarbital (60 mg/Kg). A jugular vein was catheterized for injection of the product and a carotid artery was catheterized for registration of the arterial pressure. The product to be tested was dissolved in 10% of ethanol and then injected at a volume of 1 ml/kg. […] The following table indicates the variations of the arterial pressure after administration of the product tested expressed as a percentage of the initial control arterial pressure.

[5] = test system: nigrostriated dopaminergic bundle; assay: Rotational behaviour after unilateral lesion of the nigrostriated bundle by 6-hydroxydopamine; assay type: in vivo, rats
Procedure: (1) Rotational behaviour after unilateral lesion of the nigrostriated bundle by 6-hydroxydopamine.
Male rats of about 220 g weight were injured in the nigrostriated dopaminergic bundle by a modified Ungerstedt's method [Acta. physiol. Scand. 1971, 82 suppl. 367-69 93] by unilateral injection of […] of 6-hydroxydopamine hydrochloride in solution in 4 microliters of physiological solution containing 0.4 mg/ml of ascorbic acid. The products studied were administered intraperitoneally and the treated animals were placed individually in a rotameter which enabled the counting of the number of rotations made by each animal in the direction opposite to that of the injured side.

T1 sequence (P61169 whole entry): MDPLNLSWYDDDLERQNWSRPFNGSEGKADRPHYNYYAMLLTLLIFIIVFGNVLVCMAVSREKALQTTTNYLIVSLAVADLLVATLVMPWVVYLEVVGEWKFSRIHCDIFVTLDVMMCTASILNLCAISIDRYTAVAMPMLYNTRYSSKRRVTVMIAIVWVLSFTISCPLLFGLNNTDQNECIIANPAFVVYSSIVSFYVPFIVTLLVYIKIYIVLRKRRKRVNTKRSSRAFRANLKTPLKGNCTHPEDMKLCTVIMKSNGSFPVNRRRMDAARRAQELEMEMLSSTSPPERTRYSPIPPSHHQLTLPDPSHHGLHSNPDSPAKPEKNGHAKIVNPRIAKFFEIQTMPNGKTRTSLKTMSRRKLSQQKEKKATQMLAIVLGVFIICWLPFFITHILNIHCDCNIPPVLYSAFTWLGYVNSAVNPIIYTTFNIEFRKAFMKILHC

## O=c1[nH]c2cccc(C3CCCNC3)c2[nH]1 (stereo not shown) [Example 1, 1,3-dihydro-4-(3-piperidinyl)-2H-benzimidazol-2-one]
[1]; rat striated bodies, 3H spiroperidol, 20 minutes at 37° C., pH 7.3, read-out: IC50 (displacement of 50% of the specific radio-activity fixed on the receptor)
  pIC50: 6.76
[2]
  LDO (maximum dose not causing any mortality in 8 days): greater than 400 mg/kg

## Br.O=c1[nH]c2c(O)ccc(C3CCCNC3)c2[nH]1 (stereo not shown) [Example 4, 1,3-dihydro-4-hydroxy-7-(3-piperidinyl)-2H-benzimidazol-2-one hydrobromide]
[1]
  pIC50: 6.52
[2]
  LDO (maximum dose not causing any mortality in 8 days): greater than 400 mg/kg
[3]
  minimal effective dose: 0.03 mg/kg
[4]; dose 0.1 mg/kg
  variation of the arterial pressure 30 min. after administration: -17 percentage of the initial cont

## Br.CCCN1CCCC(c2ccc(O)c3[nH]c(=O)[nH]c23)C1 (stereo not shown) [Example 5, 1,3-dihydro-4-hydroxy-7-(1-propyl-3-piperidinyl)-2H-benzimidazol-2-one hydrobromide]
[4]; dose 1 mg/kg
  variation of the arterial pressure 5 min. after administration: -19 percentage of the initial cont
  variation of the arterial pressure 30 min. after administration: -19 percentage of the initial cont
[4]; dose 10 mg/kg
  variation of the arterial pressure 5 min. after administration: -23 percentage of the initial cont
  variation of the arterial pressure 30 min. after administration: -21 percentage of the initial cont

## CN1CCCC(c2ccc(O)c3[nH]c(=O)[nH]c23)C1 (stereo not shown) [Example 6, 1,3-dihydro-4-hydroxy-7-(1-methyl-3-piperidinyl)-2H-benzimidazol-3-one hydrobromide]
[5]; Rattus norvegicus, ip, read-out: dose from which rotational behavior is induced
  minimal effective dose: 10 mg/kg
[5]; rats, intraperitoneal, dose of 5 mg/kg
  rotational behavior (activity): inactive
[5]; rats, intraperitoneal, conclusion from rotation model of very great sensitivity
  central dopaminergic agonist activity: weak
